pIC50: −log10 of the molar value. “And” between values parts separate entries of the source, which are not always exact repeats. Equal values may be shown once.
How the values were obtained:
[1] = test system: Tumor Cells in Hollow Fibers; test: NCI Hollow Fiber Assay (in vivo evaluation); details: for IP Score: IP fibers; for SC score: SC fibers
UO-31 = test: NCI 60-cell line growth inhibition assay; type: cell-based; details: Homo sapiens
OVCAR-3 = test: NCI 60-cell line growth inhibition assay; type: cell-based; details: Homo sapiens
786-0 = test: NCI 60-cell line growth inhibition assay; type: cell-based; details: Homo sapiens
SK-MEL-28 = test: NCI 60-cell line growth inhibition assay; type: cell-based; details: Homo sapiens
DU-145 = test: NCI 60-cell line growth inhibition assay; type: cell-based; details: Homo sapiens
SNB-75 = test: NCI 60-cell line growth inhibition assay; type: cell-based; details: Homo sapiens
UACC-257 = test: NCI 60-cell line growth inhibition assay; type: cell-based; details: Homo sapiens
[2] = MTD (NCI in vivo evaluation, Table 8); details: mouse
HeLa S-3 cells = test: Inhibition of cell growth of HeLa cells (SRB); type: cell-based, human; details: 2 days of treatment, replicate experiments
MDA-N = test: NCI 60-cell line growth inhibition assay; type: cell-based; details: Homo sapiens
MDA-MB-231/ATCC = test: NCI 60-cell line growth inhibition assay; type: cell-based; details: Homo sapiens
SF-539 = test: NCI 60-cell line growth inhibition assay; type: cell-based; details: Homo sapiens
BT-549 = test: NCI 60-cell line growth inhibition assay; type: cell-based; details: Homo sapiens
OVCAR-5 = test: NCI 60-cell line growth inhibition assay; type: cell-based; details: Homo sapiens
ACHN = test: NCI 60-cell line growth inhibition assay; type: cell-based; details: Homo sapiens
HS 578T = test: NCI 60-cell line growth inhibition assay; type: cell-based; details: Homo sapiens
U251 = test: NCI 60-cell line growth inhibition assay; type: cell-based; details: Homo sapiens, U-251
MCF7 = test: NCI 60-cell line growth inhibition assay; type: cell-based; details: Homo sapiens
UACC-62 = test: NCI 60-cell line growth inhibition assay; type: cell-based; details: Homo sapiens
RXF 393 = test: NCI 60-cell line growth inhibition assay; type: cell-based; details: Homo sapiens
HT29 = test: NCI 60-cell line growth inhibition assay; type: cell-based; details: Homo sapiens, HT-29
TK-10 = test: NCI 60-cell line growth inhibition assay; type: cell-based; details: Homo sapiens; TK-10 (Renal)
CyclinB/cdk1 = target: T1, CyclinB/cdk1 (Homo sapiens, UniProt P06493); test: CyclinB/cdk1 protein kinase assay (histone H1 phosphorylation); type: biochemical; details: complex immunopurified from HeLa cells; 15 μM ATP; replicate experiments
T1 construct: Monoclonal antibody against cyclinB (GNS1) is added to the supernatant; endogenous in cells
Description: HeLa cells are blocked at the G1/S border by culturing in the presence of 2 mM thymidine for 20 h. The cells are then rinsed 3×in phosphate buffered saline and resuspended in regular medium. After 4 h of culture, the mitotic blocker, nocodazole is added to a final concentration of 75 ng/ml. […] The lysate is then clarified by centrifugation at 10,000×g for 10 min. The supernatant is collected and diluted 1:5 with Lysis Buffer. Monoclonal antibody against cyclinB (GNS1) is added to the supernatant to a final concentration of 5 μg/ml and shaken at 4° C. for 2 h. The immune complexes are then collected by the addition of 200 μl of protein agarose beads for 1 h. The beads are washed 4×in lysis buffer and 1×in kinase assay buffer.
Duplicate assays were performed at each concentration.

CyclinA/cdk2 = CyclinA/cdk2 (Homo sapiens, UniProt P24941); test: CyclinA/cdk2 protein kinase assay (histone H1 phosphorylation); details: IC50 CyclinA/cdk2, complex immunopurified from HeLa cells; 15 μM ATP; replicate experiments
CyclinE/cdk2 = CyclinE/cdk2 (Homo sapiens, UniProt P24941); test: CyclinE/cdk2 protein kinase assay (histone H1 phosphorylation); details: IC50 CyclinE/cdk2, complex immunopurified from HeLa cells; 15 μM ATP; replicate experiments

T1 sequence (P06493 whole entry): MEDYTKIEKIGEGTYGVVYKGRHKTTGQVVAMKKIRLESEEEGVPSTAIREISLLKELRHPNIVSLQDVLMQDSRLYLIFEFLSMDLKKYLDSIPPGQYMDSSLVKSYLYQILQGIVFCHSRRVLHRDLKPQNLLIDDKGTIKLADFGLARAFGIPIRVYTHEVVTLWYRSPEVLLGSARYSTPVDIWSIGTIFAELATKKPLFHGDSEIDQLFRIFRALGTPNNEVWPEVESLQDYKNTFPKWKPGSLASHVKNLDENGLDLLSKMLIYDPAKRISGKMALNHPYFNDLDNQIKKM
T1 sequence (P14635 whole entry partner): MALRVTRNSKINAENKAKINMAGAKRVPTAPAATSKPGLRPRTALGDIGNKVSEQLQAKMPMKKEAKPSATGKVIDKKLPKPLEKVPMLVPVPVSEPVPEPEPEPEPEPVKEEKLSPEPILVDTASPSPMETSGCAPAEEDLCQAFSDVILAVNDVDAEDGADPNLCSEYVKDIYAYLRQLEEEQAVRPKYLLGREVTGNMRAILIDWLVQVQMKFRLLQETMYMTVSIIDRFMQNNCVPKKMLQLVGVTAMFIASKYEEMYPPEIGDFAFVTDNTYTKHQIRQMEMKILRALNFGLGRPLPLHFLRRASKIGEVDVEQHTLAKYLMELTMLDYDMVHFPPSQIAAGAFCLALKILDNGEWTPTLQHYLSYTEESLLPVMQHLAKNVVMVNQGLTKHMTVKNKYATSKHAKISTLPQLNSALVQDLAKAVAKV

Compound	IP Score [1]	SC score [1]	GI50 (UO-31; UO-31 (Renal)) [nM]	GI50 (OVCAR-3; OVCAR-3 (Ovarian)) [nM]	GI50 (786-0; 786-0 (Renal)) [nM]	GI50 (SK-MEL-28; SK-MEL-28 (Melanoma)) [nM]	GI50 (HT29; HT29 (Colon)) [nM]	GI50 (TK-10) [nM]	GI50 (DU-145; DU-145 (Prostate)) [nM]	GI50 (SNB-75; SNB-75 (CNS)) [nM]	GI50 (UACC-257; UACC-257 (Melanoma)) [nM]	GI50 (MDA-MB-231/ATCC; MDA-MB-231/ATCC (Breast)) [nM]	GI50 (SF-539; SF-539 (CNS)) [nM]	GI50 (BT-549; BT-549 (Breast)) [nM]	GI50 (OVCAR-5; OVCAR-5 (Ovarian)) [nM]	GI50 (ACHN; ACHN (Renal)) [nM]	GI50 (U251; U251 (CNS)) [nM]	GI50 (MCF7; MCF7 (Breast)) [nM]	GI50 (UACC-62; UACC-62 (Melanoma)) [nM]	GI50 (RXF 393; RXF 393 (Renal)) [nM]	also measured
CC[C@H](CO)Nc1nc(NCc2ccc(-c3ccccc3)cc2)c2ncn(C(C)C)c2n1 [Compound 73]	2	0	–	–	–	–	–	–	–	–	–	–	–	–	–	–	–	–	–	–	GI50 (UO-31; Renal, UO-31): 60 nM; GI50 (OVCAR-3; Ovarian, OVCAR-3): 300 nM; GI50 (786-0; Renal, 786-0): 200 nM; GI50 (SK-MEL-28; Melanoma, SK-MEL-28): 450 nM; GI50 (DU-145; Prostate, DU-145): 7080 nM; GI50 (SNB-75; CNS, SNB-75): 20 nM; GI50 (UACC-257; Melanoma, UACC-257): 160 nM; MTD [2]: 100 mg/kg; GI50 (HeLa S-3 cells; Homo sapiens, HeLa S3, 48 h): 300 nM; GI50 (MDA-N; Breast, MDA-N): 130 nM; GI50 (MDA-MB-231/ATCC; Breast, MDA-MB-231/ATCC): 500 nM; GI50 (SF-539; CNS, SF-539): 760 nM; GI50 (BT-549; Breast, BT-549): 250 nM; GI50 (OVCAR-5; Ovarian, OVCAR-5): 250 nM; GI50 (ACHN; Renal, ACHN): 320 nM; GI50 (HS 578T; Breast, HS 578T): 100 nM; GI50 (U251; CNS, U251): 320 nM; GI50 (MCF7; Breast, MCF7): 160 nM; GI50 (UACC-62; Melanoma, UACC-62): 300 nM; GI50 (RXF 393; Renal, RXF 393): 90 nM
Cn1cnc2c(NCc3ccccc3)nc(NCCO)nc21 [Olomoucine, reference compound]	–	–	32000	79000	63000	50000	63000	63000	40000	25000	79000	100000	32000	79000	40000	25000	50000	50000	32000	20000	GI50 (HeLa S-3 cells; Homo sapiens, HeLa S3, 48 h): 75000 nM; GI50 (MDA-N; MDA-N (Breast)): 79000 nM; GI50 (HS 578T; HS 578T (Breast)): 63000 nM
CC(C)n1cnc2c(NCc3ccc(-c4ccsc4)cc3)nc(N[C@H]3CC[C@H](N)CC3)nc21 [Compound 12]	26	4	63	12	6.5	10	< 5	10	17	< 5	8	< 5	22	41	17	39	7.8	< 5	27	< 5	Cell Types Killed [1]: MDA-MB-435; pIC50 (CyclinB/cdk1): 5.52; pIC50 (CyclinA/cdk2): 5.70 and 6.15 and 6.05 and 6.70; MTD [2]: 3.1 mg/kg; GI50 (MDA-N; MDA-N (Breast)): < 5 nM; GI50 (HS 578T; HS 578T (Breast)): < 5 nM
CC(=O)N[C@H]1CC[C@H](Nc2nc(NCc3ccc(-c4ccccn4)cc3)c3ncn(C(C)C)c3n2)CC1 [Compound 79]	26	6	< 10	< 10	< 10	< 10	< 10	< 10	< 10	< 10	< 10	< 10	< 10	< 10	< 10	< 10	< 10	< 10	< 10	< 10	pIC50 (CyclinB/cdk1): 5.52; pIC50 (CyclinA/cdk2): 6.30 and 6.00; MTD [2]: 6.3 mg/kg; GI50 (MDA-N; MDA-N (Breast)): < 10 nM; GI50 (HS 578T; HS 578T (Breast)): < 10 nM
CC(=O)N[C@H]1CC[C@H](Nc2nc(NCc3ccc(-c4ccccc4)nc3)c3ncn(C(C)C)c3n2)CC1 [Compound 87]	30	2	16	50	47	< 10	< 10	29	220	12	–	< 10	81	20	51	190	28	40	45	11	pIC50 (CyclinB/cdk1): 5.30; pIC50 (CyclinA/cdk2): 5.40 and 5.70 and 6.30; GI50 (HeLa S-3 cells): 6 nM; GI50 (HS 578T; HS 578T (Breast)): < 10 nM; pIC50 (CyclinE/cdk2): 6.00 and 6.52 and 7.00
CC[C@H](CO)Nc1nc(NCc2ccc(-c3ccc(OC)cc3)cc2)c2ncn(C(C)C)c2n1 [Compound 43]	–	–	2800	9300	3100	2300	3600	3200	2600	–	4800	3200	3400	4000	3600	3100	2300	2700	3300	1900	GI50 (HeLa S-3 cells; Homo sapiens, HeLa S3, 48 h): 4000 nM
CC[C@H](CO)Nc1nc(NCc2ccc(-c3cccc([N+](=O)[O-])c3)cc2)c2ncn(C(C)C)c2n1 [Compound 48]	–	–	< 10	170	250	< 10	< 10	370	550	< 10	40	90	380	10	160	250	170	250	100	< 10	pIC50 (CyclinA/cdk2): 4.66 and 5.22; GI50 (HeLa S-3 cells): 600 nM and 500 nM; GI50 (HeLa S-3 cells; Homo sapiens, HeLa S3, 48 h): 300 nM; GI50 (MDA-N; MDA-N (Breast)): 20 nM; GI50 (HS 578T; HS 578T (Breast)): 30 nM; pIC50 (CyclinE/cdk2): 6.00 and 5.30
CC[C@H](CO)Nc1nc(NCc2ccc(-c3ccccn3)cc2)c2ncn(C(C)C)c2n1 [Compound 17]	8	0	–	–	–	–	–	–	–	–	–	–	–	–	–	–	–	–	–	–	GI50 (UO-31; Renal, UO-31): 100 nM; GI50 (OVCAR-3; Ovarian, OVCAR-3): 650 nM; GI50 (786-0; Renal, 786-0): 250 nM; GI50 (SK-MEL-28; Melanoma, SK-MEL-28): 120 nM; GI50 (HT29; Colon, HT29): 100 nM; GI50 (DU-145; Prostate, DU-145): 630 nM; GI50 (SNB-75; CNS, SNB-75): 20 nM; GI50 (UACC-257; Melanoma, UACC-257): 200 nM; MTD [2]: 100 mg/kg; GI50 (MDA-N; Breast, MDA-N): 110 nM; GI50 (SF-539; CNS, SF-539): 400 nM; GI50 (BT-549; Breast, BT-549): 400 nM; GI50 (OVCAR-5; Ovarian, OVCAR-5): 260 nM; GI50 (ACHN; Renal, ACHN): 400 nM; GI50 (HS 578T; Breast, HS 578T): 6310 nM; GI50 (U251; CNS, U251): 400 nM; GI50 (MCF7; Breast, MCF7): 160 nM; GI50 (UACC-62; Melanoma, UACC-62): 270 nM; GI50 (RXF 393; Renal, RXF 393): 20 nM
CC(C)n1cnc2c(NCc3ccc(-c4ccccn4)cc3)nc(N[C@H]3CC[C@H](N)CC3)nc21 [Compound 78]	34	0	170	30	40	10	< 10	70	60	< 10	20	< 10	–	40	< 10	320	20	< 10	30	< 10	Cell Types Killed [1]: OVCAR 3, SF29; pIC50 (CyclinB/cdk1): 6.10; pIC50 (CyclinA/cdk2): 6.05 and 6.15; MTD [2]: 6.3 mg/kg; GI50 (MDA-N; MDA-N (Breast)): < 10 nM; pIC50 (CyclinE/cdk2): 6.22 and 6.52 and 6.70

— patent publication US20030087906A1, “NITROGEN SUBSTITUTED BIARYL PURINE DERIVATIVES AS POTENT ANTIPROLIFERATIVE AGENTS” (priority 2001, published 2003)
